Measurements as given in ChEMBL document CHEMBL3244109, “Synthesis of cyclohexyl carbocyclic puromycin and its inhibition of protein synthesis” (J Med Chem, 1977).
Active and inactive are the calls of the source. The rule behind the calls is not given here.

Assay: Inhibition of rate of poly(U,C) (unknown origin)-directed L-[14C]poly-(phenylalanine) formation in Escherichia coli cell-free ribosome system at 10^-3 M by liquid scintillation counting
Format: functional

SMILES | inhibition
COc1ccc(C[C@H](N)C(=O)N[C@@H]2CCC[C@H](n3cnc4c(N(C)C)ncnc43)[C@H]2O)cc1 | inactive
COc1ccc(C[C@H](N)C(=O)N[C@H]2CC[C@@H](n3cnc4c(N(C)C)ncnc43)[C@@H]2O)cc1 | inactive
COc1ccc(C[C@H](N)C(=O)N[C@@H]2CC[C@H](n3cnc4c(N(C)C)ncnc43)[C@H]2O)cc1 | inactive
COc1ccc(C[C@H](N)C(=O)N[C@H]2CCC[C@@H](n3cnc4c(N(C)C)ncnc43)[C@@H]2O)cc1 | inactive
COc1ccc(C[C@H](N)C(=O)N[C@H]2CC[C@H](n3cnc4c(N(C)C)ncnc43)[C@H]2O)cc1 | inactive
